Reference: US8697691B2, “Alkyl 3-((2-amidoethyl)amino)-8-azabicyclo[3.2.1]octane-8-carboxylate analogs as selective M1 agonists and methods of making and using same” (Vanderbilt University, priority 2009, dated 2014)
Like-named read-outs stand apart in the source and are kept apart here.

Molecular target: T1, rat M1 receptor (Rattus norvegicus, UniProt P08482)
T1 construct: host or cells: CHO-K1
T1 sequence (P08482 1-460): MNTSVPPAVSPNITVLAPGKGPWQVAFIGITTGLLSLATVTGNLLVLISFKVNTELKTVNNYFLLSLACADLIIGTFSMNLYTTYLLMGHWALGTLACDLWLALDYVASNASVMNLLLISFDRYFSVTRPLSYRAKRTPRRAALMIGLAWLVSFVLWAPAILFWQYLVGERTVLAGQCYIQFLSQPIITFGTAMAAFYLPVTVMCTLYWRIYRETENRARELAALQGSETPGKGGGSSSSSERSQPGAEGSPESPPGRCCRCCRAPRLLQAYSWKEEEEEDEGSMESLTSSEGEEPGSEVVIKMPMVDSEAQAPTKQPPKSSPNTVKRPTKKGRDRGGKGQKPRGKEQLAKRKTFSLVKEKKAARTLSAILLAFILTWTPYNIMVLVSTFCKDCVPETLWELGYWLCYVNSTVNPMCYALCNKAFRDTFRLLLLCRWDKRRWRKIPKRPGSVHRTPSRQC
Experiment: Calcium mobilization assay, CHO-K1 cells stably expressing rat M1 (low throughput, Flexstation II)
Type: cell-based
Conditions: for Emax: CHO-K1, read-out: Efficacy (% Max ACh)
Source text: Chinese hamster ovary (CHO-K1) cells stably expressing rat (r)M1 were purchased from the American Type Culture Collection and cultured according to their indicated protocol. CHO cells stably expressing human (h)M2, hM3, and hM5 were described previously (Levey et al., 1991); hM1 and hM4 cDNAs were purchased from Missouri S&T cDNA Resource; rM4 cDNA was provided by T. I. Bonner (National Institutes of Health, Bethesda, Md.). hM1, hM4, and rM4 cDNAs were used to stably transfect CHO-K1 cells purchased from the American Type Culture Collection using Lipofectamine2000. To make stable hM2, hM4 and rM4 cell lines for use in calcium mobilization assays, these cells also were stably transfected with a chimeric G-protein (Gqi5) (provided by B. R. Conklin, University of California, San Francisco) using Lipofectamine 2000. rM1, hM3, and hM5 cells were grown in Ham's F-12 medium containing 10% heat-inactivated fetal bovine serum (FBS), 20 mM HEPES, and 50 μg/mL G418 sulfate. hM2-Gqi5 and hM4-Gqi5 cells were grown in the same medium also containing 500 μg/mL Hygromycin B. Stable rM4-Gqi5 cells were grown in DMEM containing 10% heat-inactivated FBS, 20 mM HEPES, 400 μg/mL G418 sulfate, and 500 μg/mL Hygromycin B. The rat M1 Y381A orthosteric mutant receptor cDNA was generated using the Quik-Change site-directed mutagenesis kit (Stratagene) and verified by sequencing. CHO-K1 cells were stably transfected with this cDNA using Lipofectamine2000 and screened for expression based on calcium mobilization in response to the allosteric M1 agonist N-desmethylclozapine.
For low throughput measurement of agonist-evoked increases in intracellular calcium, CHO-K1 cells stably expressing muscarinic receptors were plated in 100 μL of growth medium at 5×10^4 (rM1, hM3, and hM5) or 6×10^4 cells per well (rM1 Y381A, hM2, and rM4) in Costar 96-well black-walled, tissue culture (TC)-treated, clear-bottom plates (Fisher). Cells were incubated overnight at 37° C. and 5% CO2. The next day, medium was removed from the cells, and they were incubated with 50 μL of 2 μM Fluo-4/acetoxymethyl ester (Invitrogen, Carlsbad, Calif.) prepared as a 2.3 mM stock in DMSO and mixed in a 1:1 ratio with 10% (w/v) Pluronic F-127 and diluted in assay buffer [HBSS (Invitrogen) supplemented with 20 mM HEPES and 2.5 mM probenecid, pH 7.4] for 1 h at 37° C. and 5% CO2. Dye was removed and replaced with 50 μL of assay buffer. For calcium fluorescence measurements, CRCs of compounds (50 μl, 2×) were added 19 s after the beginning of data collection via a Flexstation II (Molecular Devices, Sunnyvale, Calif.). Fluorescence imaging continued for a total of 130 s acquisition time using an excitation wavelength of 488 nm, an emission wavelength of 525 nm, and a cutoff wavelength of 515 nm. All of the peaks of the calcium response were normalized to the response to a maximally effective concentration of ACh (ECmax). These normalized peak calcium response values were fit using GraphPad Prism version 4.0 to a four-parameter logistic equation to determine EC50 values.

[1] = rat M1, agonist-evoked calcium mobilization in CHO-K1 cells, read-out: Potency (EC50)

Row | SMILES | EC50 [nM] | Emax [%] | EC50 [1] [nM]
1 | CCOC(=O)N1C2CCC1CC(NCCNC(=O)c1cccs1)C2 (stereo not shown) [Example 1, Ethyl 3-(2-(thiophene-2-carboxamido)ethylamino)-8-azabicyclo[3.2.1]octane-8-carboxylate] | 74 | 88 | –
2 | CCOC(=O)N1C2CCC1CC(NCCNC(=O)c1ccccc1F)C2 (stereo not shown) [Example 2, Ethyl 3-(2-(2-fluorobenzamido)ethylamino)-8-azabicyclo[3.2.1]octane-8-carboxylate] | 69 | 103 | –
3 | CCOC(=O)N1C2CCC1CC(NCCNC(=O)c1ccccc1C)C2 (stereo not shown) [Example 3, ethyl 3-({2-[(2-methylphenyl)formamido]-ethyl}amino)-8-azabicyclo[3.2.1]octane-8-carboxylate] | 85 | 81 | –
4 | CCOC(=O)N1C2CCC1CC(NCCNC(=O)c1cccc(OC)c1)C2 (stereo not shown) [Example 4, ethyl 3-({2-[(3-methoxy-phenyl)formamido]-ethyl}amino)-8-azabicyclo[3.2.1]octane-8-carboxylate] | – | 81 | 211
5 | CCOC(=O)N1C2CCC1CC(NCCNC(=O)c1ccc(F)cc1C(F)(F)F)C2 (stereo not shown) [Example 5, ethyl 3-[(2-{[4-fluoro-2-(trifluoromethyl)phenyl]-formamido}ethyl)-amino]-8-azabicyclo[3.2.1]octane-8-carboxylate] | – | 39 | –
6 | CCOC(=O)N1C2CCC1CC(NCCNC(=O)c1ccc(F)cc1F)C2 (stereo not shown) [Example 6, ethyl 3-({2-[(2,4-difluorophenyl)formamido]-ethyl}amino)-8-azabicyclo[3.2.1]octane-8-carboxylate] | 72 | 82 | –
7 | CCOC(=O)N1C2CCC1CC(NCCNC(=O)c1ccc(F)cc1Cl)C2 (stereo not shown) [Example 7, ethyl 3({2-[(2-chloro-4-fluorophenyl)formamido]-ethyl}amino)-8-azabicyclo[3.2.1]octane-8-carboxylate] | 96 | 95 | –
8 | CCOC(=O)N1C2CCC1CC(NCCNC(=O)c1ccc(C)cc1)C2 (stereo not shown) [Example 8, ethyl 3-({2-[(4-methylphenyl)formamido]-ethyl}amino)-8-azabicyclo[3.2.1]octane-8-carboxylate] | – | 47 | –
9 | CCOC(=O)N1C2CCC1CC(NCCNC(=O)c1cccc(C)c1)C2 (stereo not shown) [Example 9, ethyl 3-({2-[(3-methylphenyl)formamido]-ethyl}amino)-8-azabicyclo[3.2.1]octane-8-carboxylate] | – | 103 | 115
10 | CCOC(=O)N1C2CCC1CC(NCCNC(=O)c1ccc(Cl)c(Cl)c1)C2 (stereo not shown) [Example 10, ethyl 3-({2-[(3,4-dichlorophenyl)formamido]-ethyl}amino)-8-azabicyclo[3.2.1]octane-8-carboxylate] | – | 49 | 1020
11 | CCOC(=O)N1C2CCC1CC(NCCNC(=O)c1ccc(C)c(C)c1)C2 (stereo not shown) [Example 11, ethyl 3-({2-[(3,4-dimethylphenyl)formamido]-ethyl}amino)-8-azabicyclo[3.2.1]octane-8-carboxylate] | – | 48 | –
12 | CCOC(=O)N1C2CCC1CC(NCCNC(=O)c1ccc3c(c1)CCO3)C2 (stereo not shown) [Example 12, ethyl 3-{[2-(2,3-dihydro-1-benzofuran-5-ylformamido)ethyl]-amino}-8-azabicyclo[3.2.1]octane-8-carboxylate] | – | 31 | –
13 | CCOC(=O)N1C2CCC1CC(NCCNC(=O)c1ccc(C)c(F)c1)C2 (stereo not shown) [Example 13, ethyl 3-({2-[(3-fluoro-4-methylphenyl)formamido]-ethyl}amino)-8-azabicyclo[3.2.1]octane-8-carboxylate] | – | 50 | 631
14 | CCOC(=O)N1C2CCC1CC(NCCNC(=O)c1ccco1)C2 (stereo not shown) [Example 14, ethyl 3-{[2-(furan-2-ylformamido)ethyl]-amino}-8-azabicyclo[3.2.1]octane-8-carboxylate] | – | 24 | –
15 | CCOC(=O)N1C2CCC1CC(NCCNC(=O)c1ccc(F)c(F)c1)C2 (stereo not shown) [Example 15, ethyl 3-({2-[(3,4-difluorophenyl)formamido]-ethyl}amino)-8-azabicyclo[3.2.1]octane-8-carboxylate] | – | 104 | 122
